# Laboratory results from US9290536B2, “C4 monomethyl triterpenoid derivatives and methods of use thereof” (Reata Pharmaceuticals, Inc., priority 2011, dated 2016).
# System: IFNγ-induced NO production in RAW264.7
# Experiment: Suppression of IFNγ-induced NO production in RAW264.7 mouse macrophages (Griess reagent, normalized to WST-1 cell viability)
# Assay type: cell-based
# Conditions: RAW264.7 cells, 2 h pre-treatment with drug (0-200 nM), then IFNγ for 24 h
# Description: Nitric Oxide Production and Cell Viability. […] On the next day, cells were pre-treated with DMSO or drug (0-200 nM dose range) for 2 hours, and then treated with recombinant mouse IFNγ (R&D Systems) for 24 hours. Nitric Oxide concentration in media was determined using the Griess reagent system (Promega). Cell viability was determined using WST-1 reagent (Roche). IC50 values were determined based on the suppression of IFNγ induced Nitric Oxide production normalized to cell viability.
row,Structure (SMILES),IC50
1,COC(=O)[C@]12CCC(C)(C)C[C@H]1[C@H]1C(=O)C=C3[C@@]4(C)C=C(C#N)C(=O)C(C)=C4CC[C@@]3(C)[C@]1(C)CC2 [TX63448],75 nM
2,CCNC(=O)[C@]12CCC(C)(C)C[C@H]1[C@H]1C(=O)C=C3[C@@]4(C)C=C(C#N)C(=O)[C@@H](C)[C@@H]4CC[C@@]3(C)[C@]1(C)CC2 [TX63521],1.1 nM
3,CC(=O)OC[C@]12CCC(C)(C)C[C@H]1[C@H]1C(=O)C=C3[C@@]4(C)C=C(C#N)C(=O)[C@@H](C)[C@@H]4CC[C@@]3(C)[C@]1(C)CC2 [TX63546],1 nM
4,C[C@@H]1C(=O)C(C#N)=C[C@]2(C)C3=CC(=O)[C@@]4(C)[C@@H]5CC(C)(C)CC[C@]56CC[C@]4(OC6=O)[C@]3(C)CC[C@@H]12 [TX63556],69 nM
5,C[C@@H]1C(=O)C(C#N)=C[C@]2(C)C3=CC(=O)[C@@H]4[C@@H]5CC(C)(C)CC[C@]5(C(N)=O)CC[C@@]4(C)[C@]3(C)CC[C@@H]12 [TX63557],2.2 nM
6,C[C@@H]1C(=O)C(C#N)=C[C@]2(C)C3=CC(=O)[C@@H]4[C@@H]5CC(C)(C)CC[C@]5(C#N)CC[C@@]4(C)[C@]3(C)CC[C@@H]12 [TX63558],0.6 nM
7,CCNC(=O)[C@]12CCC(C)(C)C[C@H]1[C@H]1C(=O)C=C3[C@@]4(C)C=C(C#N)C(=O)C(C)=C4CC[C@@]3(C)[C@]1(C)CC2 [TX63597],> 25 nM
8,COC(=O)[C@]12CCC(C)(C)C[C@H]1[C@H]1C(=O)C=C3[C@@]4(C)C=C(C#N)C(=O)C[C@@H]4CC[C@@]3(C)[C@]1(C)CC2 [TX63614],11.7 nM
9,C[C@@H]1C(=O)C(C#N)=C[C@]2(C)C3=CC(=O)[C@@H]4[C@@H]5CC(C)(C)CC[C@]5(N)CC[C@@]4(C)[C@]3(C)CC[C@@H]12 [TX63620],1.2 nM
10,C[C@@H]1C(=O)C(C#N)=C[C@]2(C)C3=CC(=O)[C@@H]4[C@@H]5CC(C)(C)CC[C@]5(NS(C)(=O)=O)CC[C@@]4(C)[C@]3(C)CC[C@@H]12 [TX63621],0.8 nM
11,CC(=O)N[C@]12CCC(C)(C)C[C@H]1[C@H]1C(=O)C=C3[C@@]4(C)C=C(C#N)C(=O)[C@@H](C)[C@@H]4CC[C@@]3(C)[C@]1(C)CC2 [TX63622],3.8 nM
12,CCNC(=O)[C@]12CCC(C)(C)C[C@H]1[C@H]1C(=O)C[C@@H]3[C@@]4(C)C=C(C#N)C(=O)[C@@H](C)[C@@H]4CC[C@@]3(C)[C@]1(C)CC2 [TX63680],7 nM
13,C[C@@H]1C(=O)C(C#N)=C[C@]2(C)C3=CC(=O)[C@@H]4[C@@H]5CC(C)(C)CC[C@]5(NC=O)CC[C@@]4(C)[C@]3(C)CC[C@@H]12 [TX63681],1.6 nM
14,COC(=O)N[C@]12CCC(C)(C)C[C@H]1[C@H]1C(=O)C=C3[C@@]4(C)C=C(C#N)C(=O)[C@@H](C)[C@@H]4CC[C@@]3(C)[C@]1(C)CC2 [TX63693],1.4 nM
15,C[C@@H]1C(=O)C(C#N)=C[C@]2(C)C3=CC(=O)[C@@H]4[C@@H]5CC(C)(C)CC[C@]5(COC(=O)CNC(=O)OC(C)(C)C)CC[C@@]4(C)[C@]3(C)CC[C@@H]12 [TX63716],3.2 nM
16,C[C@@H]1C(=O)C(C#N)=C[C@]2(C)C3=CC(=O)[C@@H]4[C@@H]5CC(C)(C)CC[C@]5(COC(=O)CN)CC[C@@]4(C)[C@]3(C)CC[C@@H]12 [TX63717],0.6 nM
17,COC(=O)[C@]12CCC(C)(C)C[C@H]1[C@H]1C(=O)C=C3[C@@]4(C)CC(C#N)=C(O)[C@@H](C)[C@@H]4CC[C@@]3(C)[C@]1(C)CC2 [TX63778],50 nM
18,COC(=O)[C@]12CCC(C)(C)C[C@H]1C1=CC[C@@H]3[C@@]4(C)C=C(C#N)C(=O)[C@@H](C)[C@@H]4CC[C@@]3(C)[C@]1(C)CC2 [TX63779],44 nM
19,COCC(=O)NNC(=O)[C@]12CCC(C)(C)C[C@H]1[C@H]1C(=O)C=C3[C@@]4(C)C=C(C#N)C(=O)[C@@H](C)[C@@H]4CC[C@@]3(C)[C@]1(C)CC2 [TX63784],7.5 nM
20,C[C@@H]1C(=O)C(C#N)=C[C@]2(C)C3=CC(=O)[C@@H]4[C@@H]5CC(C)(C)CC[C@]5(C(=O)NNC=O)CC[C@@]4(C)[C@]3(C)CC[C@@H]12 [TX63785],20 nM
21,C/C(=N\O)NC(=O)[C@]12CCC(C)(C)C[C@H]1[C@H]1C(=O)C=C3[C@@]4(C)C=C(C#N)C(=O)[C@@H](C)[C@@H]4CC[C@@]3(C)[C@]1(C)CC2 [TX63786],2.2 nM
22,Cc1noc([C@]23CCC(C)(C)C[C@H]2[C@H]2C(=O)C=C4[C@@]5(C)C=C(C#N)C(=O)[C@@H](C)[C@@H]5CC[C@@]4(C)[C@]2(C)CC3)n1 [TX63787],0.8 nM
23,COC(=O)C1=C[C@]2(C)C3=CC(=O)[C@@H]4[C@@H]5CC(C)(C)CC[C@]5(C(=O)OC)CC[C@@]4(C)[C@]3(C)CC[C@H]2[C@H](C)C1=O [TX63788],33.5 nM

row,Structure (SMILES),IC50
1,C[C@@H]1C(=O)C(C#N)=C[C@]2(C)C3=CC(=O)[C@@H]4[C@@H]5CC(C)(C)CC[C@]5(c5nnco5)CC[C@@]4(C)[C@]3(C)CC[C@@H]12 [TX63789],0.6 nM
2,COCc1nnc([C@]23CCC(C)(C)C[C@H]2[C@H]2C(=O)C=C4[C@@]5(C)C=C(C#N)C(=O)[C@@H](C)[C@@H]5CC[C@@]4(C)[C@]2(C)CC3)o1 [TX63790],1.1 nM
3,COC(=O)[C@]12CCC(C)(C)C[C@H]1C1=CC[C@@H]3[C@@]4(C)CC(C#N)=C(OC(C)=O)[C@@H](C)[C@@H]4CC[C@@]3(C)[C@]1(C)CC2 [TX63795],> 200 nM
4,C[C@@H]1C(=O)C(C#N)=C[C@]2(C)[C@H]3CC(=O)[C@@H]4[C@@H]5CC(C)(C)CC[C@]5(C(=O)O)CC[C@@]4(C)[C@]3(C)CC[C@@H]12 [TX63797],21 nM
5,C[C@@H]1C(=O)C(C#N)=C[C@]2(C)C3=CC(=O)[C@@H]4[C@@H]5CC(C)(C)CC[C@]5(NC(=O)c5ccccc5)CC[C@@]4(C)[C@]3(C)CC[C@@H]12 [TX63798],1.5 nM
6,C[C@@H]1C(=O)C(C#N)=C[C@]2(C)C3=CC(=O)[C@@H]4[C@@H]5CC(C)(C)CC[C@]5(NC(=O)CC(F)(F)F)CC[C@@]4(C)[C@]3(C)CC[C@@H]12 [TX63799],1.8 nM
7,CCOC(=O)N[C@]12CCC(C)(C)C[C@H]1[C@H]1C(=O)C=C3[C@@]4(C)C=C(C#N)C(=O)[C@@H](C)[C@@H]4CC[C@@]3(C)[C@]1(C)CC2 [TX63800],0.9 nM
8,C[C@@H]1C(=O)C(C#N)=C[C@]2(C)[C@H]3CC(=O)[C@@H]4[C@@H]5CC(C)(C)CC[C@]5(C(=O)NCC(F)(F)F)CC[C@@]4(C)[C@]3(C)CC[C@@H]12 [TX63807],5.8 nM
9,C[C@@H]1C(=O)C(C#N)=C[C@]2(C)[C@H]3CC(=O)[C@@H]4[C@@H]5CC(C)(C)CC[C@]5(C(=O)n5ccnc5)CC[C@@]4(C)[C@]3(C)CC[C@@H]12 [TX63811],0.3 nM
10,C[C@@H]1C(=O)C(C#N)=C[C@]2(C)[C@H]3CC(=O)[C@@H]4[C@@H]5CC(C)(C)CC[C@]5(C(=O)N5CCOCC5)CC[C@@]4(C)[C@]3(C)CC[C@@H]12 [TX63812],10.1 nM
11,C[C@@H]1C(=O)C(C#N)=C[C@]2(C)[C@H]3CC(=O)[C@@H]4[C@@H]5CC(C)(C)CC[C@]5(C(=O)NO)CC[C@@]4(C)[C@]3(C)CC[C@@H]12 [TX63814],19 nM
12,CONC(=O)[C@]12CCC(C)(C)C[C@H]1[C@H]1C(=O)C[C@@H]3[C@@]4(C)C=C(C#N)C(=O)[C@@H](C)[C@@H]4CC[C@@]3(C)[C@]1(C)CC2 [TX63815],9.6 nM
13,C[C@@H]1C(=O)C(C#N)=C[C@]2(C)[C@H]3CC(=O)[C@@H]4[C@@H]5CC(C)(C)CC[C@]5(C(N)=O)CC[C@@]4(C)[C@]3(C)CC[C@@H]12 [TX63816],10.2 nM
14,C[C@@H]1C(=O)C(C#N)=C[C@]2(C)[C@H]3CC(=O)[C@@H]4[C@@H]5CC(C)(C)CC[C@]5(C#N)CC[C@@]4(C)[C@]3(C)CC[C@@H]12 [TX63817],2.6 nM
15,C[C@@H]1C(=O)C(C#N)=C[C@]2(C)C3=CC(=O)[C@@H]4[C@@H]5CC(C)(C)CC[C@]5(NS(=O)(=O)CC(F)(F)F)CC[C@@]4(C)[C@]3(C)CC[C@@H]12 [TX63818],0.8 nM
16,CC(C)OC(=O)N[C@]12CCC(C)(C)C[C@H]1[C@H]1C(=O)C=C3[C@@]4(C)C=C(C#N)C(=O)[C@@H](C)[C@@H]4CC[C@@]3(C)[C@]1(C)CC2 [TX63819],2.7 nM
17,CCOC(=O)[C@]12CCC(C)(C)C[C@H]1[C@H]1C(=O)C=C3[C@@]4(C)C=C(C#N)C(=O)[C@@H](C)[C@@H]4CC[C@@]3(C)[C@]1(C)CC2 [TX63820],1.5 nM
18,CCCCCCOC(=O)[C@]12CCC(C)(C)C[C@H]1[C@H]1C(=O)C=C3[C@@]4(C)C=C(C#N)C(=O)[C@@H](C)[C@@H]4CC[C@@]3(C)[C@]1(C)CC2 [TX63821],53 nM
19,Cc1cn(C(=O)[C@]23CCC(C)(C)C[C@H]2[C@H]2C(=O)C=C4[C@@]5(C)C=C(C#N)C(=O)[C@@H](C)[C@@H]5CC[C@@]4(C)[C@]2(C)CC3)c(C)n1 [TX63822],0.7 nM
20,C[C@@H]1C(=O)C(C#N)=C[C@]2(C)C3=CC(=O)[C@@H]4[C@@H]5CC(C)(C)CC[C@]5(C(=O)N5CCCC5)CC[C@@]4(C)[C@]3(C)CC[C@@H]12 [TX63823],0.8 nM
21,CNC(=O)[C@]12CCC(C)(C)C[C@H]1[C@H]1C(=O)C=C3[C@@]4(C)C=C(C#N)C(=O)[C@@H](C)[C@@H]4CC[C@@]3(C)[C@]1(C)CC2 [TX63824],1 nM
22,C[C@@H]1C(=O)C(C#N)=C[C@]2(C)C3=CC(=O)[C@@H]4[C@@H]5CC(C)(C)CC[C@]5(C(=O)NC5COC5)CC[C@@]4(C)[C@]3(C)CC[C@@H]12 [TX63825],2 nM
23,CCNC(=O)N[C@]12CCC(C)(C)C[C@H]1[C@H]1C(=O)C=C3[C@@]4(C)C=C(C#N)C(=O)[C@@H](C)[C@@H]4CC[C@@]3(C)[C@]1(C)CC2 [TX63826],4.4 nM
